Laboratory results: patent US8420640B2, “Methods of treating amyloid disease using analogs of 1-(4-nitrophenyl) piperazine” (Treventis Corporation, priority 2008, dated 2013)

How the values were obtained:
beta-amyloid = beta-amyloid (Homo sapiens, UniProt P05067); settings: cited from earlier work
Aβ40 = molecular target: T1, Aβ40 (Homo sapiens, UniProt P05067); experiment: ThT functional Aβ 1-40 aggregation assay; format: biochemical; settings: for IC50: 20 μM Aβ, 20 mM Tris pH 7.4, 150 mM NaCl, 1% DMSO, 37° C.; for Ratio: potency with respect to the compound of Example 7, 1=potency of that compound
T1 construct: Compounds Showing Activity Observed in a ThT Functional Aβ 1-40 Aggregation Assay
Method: Aβ40 (1.0 mg) was pre-treated in a 1.5 mL microfuge tube with HFIP (1 mL) and sonicated for 20 min to disassemble any pre-formed Aβ aggregates. The HFIP was removed with a stream of argon and the Aβ dissolved in Tris base (5.8 mL, 20 mM, pH ˜10). The pH was adjusted to 7.4 with concentrated HCl (˜10 μL) and the solution filtered using a syringe filter (0.2 μm) before being used.
(§1) The kinetic ThT assay for Aβ aggregation is similar to that of Chalifour et al (Chalifour et al, 2003, J. Biol. Chem. 278:34874-81). Briefly, pre-treated Aβ40 (40 μM in 20 mM Tris, pH 7.4), was diluted with an equal volume of 8 μM ThT in Tris (20 mM, pH 7.4, 300 mM NaCl). Aliquots of Aβ/ThT (200 μL) were added to wells of a black polystyrene 96-well plate, followed by 2 μL of a compound in DMSO (variable concentration), or DMSO alone (controls). Incubations were performed in triplicate and were taken to contain 20 μM Aβ, various concentration of compound in 20 mM Tris, pH 7.4, 150 mM NaCl, 1% DMSO. Plates were covered with clear polystyrene lids and incubated at 37° C. in a Tecan Genios microplate reader. Fluorescence readings (λex=450 nm, λem=480 nm) were taken every 15 min., after first shaking at high intensity for 15 s and allowing to settle for 10 s before each reading. Active compounds attenuated the increase in fluorescence over time that occurred in controls. By repeating this procedure over several concentrations, a mean inhibitory concentration (IC50) was measured, as given in the table below. The column “A-syn” represents a similar procedure measuring inhibition of alpha-synuclein aggregation. The column “ratio” is a reproducible assessment of potency with respect to the compound of Example 7, in which 1=potency of that compound: […]

alpha-synuclein [1] = molecular target: T2, alpha-synuclein (Homo sapiens, UniProt P37840); experiment: alpha-synuclein aggregation inhibition (procedure similar to the ThT assay); format: biochemical; settings: inhibition of alpha-synuclein aggregation; read-out: A-syn (IC50/μM)
Method: as §1

amyloid = experiment: circular dichroism scans of amyloid with compound, T=0 to 168 hr (FIGS. 3-6); settings: scans at T=0, 24 hr, 96 hr, 120 hr
tau protein = tau protein aggregation over time (FIG. 1); format: biochemical; settings: tau protein 4 μM; compound at 10 μM
alpha-synuclein [2] = molecular target: T2, alpha-synuclein; experiment: alpha-synuclein aggregation inhibition (procedure similar to the ThT assay); format: biochemical; settings: alpha-synuclein 6 μM

T1 sequence (P05067 672-711 limits assumed): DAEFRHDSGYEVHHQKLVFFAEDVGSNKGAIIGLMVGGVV

| SMILES | IC50 (Aβ40) | Ratio (Aβ40) | IC50 (alpha-synuclein [1]) | also measured |
| --- | --- | --- | --- | --- |
| Oc1ccc(C=Cc2cc(O)cc(O)c2)cc1 [resveratrol] | – | – | – | effective concentration for inhibition of beta-amyloid aggregation (beta-amyloid): 5.6 µM |
| Nc1ccc(-c2cccc(C(=O)O)c2)cc1Nc1ccccc1 | 26.6 µM | 2.5 | 45 µM | – |
| CN(C)c1cc([N+](=O)[O-])ccc1N1CCN(C(=O)c2ccccc2)CC1 [Example 25, N,N-dimethyl-2-(4-benzoylpiperazin-1-yl)-5-nitrobenzenamine] | – | – | – | circular dichroism: effect on amyloid structure (amyloid): keeps amyloid from entering an aggregated structure |
| CN1CCN(c2ccc([N+](=O)[O-])c(NCc3ccccc3)c2)CC1 [Example 4, N-benzyl-5-(4-methylpiperazin-1-yl)-2-nitrobenzenamine] | – | – | – | ability to inhibit the aggregation of tau protein (tau protein): inhibit the aggregation of tau protein; inhibition at 10 µM (alpha-synuclein [2]; compound at 10 μM): 50%; inhibition of aggregation of alpha-synuclein (alpha-synuclein [2]; compound at 50 μM): full inhibition |
| CN1CCN(c2ccc([N+](=O)[O-])c(NCc3ccccc3)c2)CC1 [drawing 103] | 9 µM | 0.1 | 11.6 µM | – |
| O=C(O)c1cccc(-c2ccc([N+](=O)[O-])c(NCc3ccccc3)c2)c1 [drawing 139] | 1.47 µM | 2.85 | 8 µM | – |
| CN(C)c1cc([N+](=O)[O-])ccc1N1CCN(C(=O)c2ccccc2)CC1 [drawing 150] | 27 µM | 0.8 | 15 µM | – |
| O=C(O)c1cccc(-c2ccc([N+](=O)[O-])c(Nc3ccccc3)c2)c1 [drawing 149] | 9.23 µM | 2.3 | 10 µM | – |
| CN(C)c1ccc(N2CCN(C(=O)c3ccccc3)CC2)cc1Nc1ccccc1 [Example 34, (4-(4-(dimethylamino)-3-(phenylamino)phenyl)piperazin-1-yl)(phenyl)methanone] | – | – | – | circular dichroism: effect on amyloid structure (amyloid): keeps amyloid from entering an aggregated structure |
| O=C(O)c1cccc(-c2ccc([N+](=O)[O-])c(Nc3ccccc3)c2)c1 [Example 46, 4′-nitro-3′-(phenylamino) biphenyl-3-carboxylic acid] | – | – | – | circular dichroism: effect on amyloid structure (amyloid): keeps amyloid from entering an aggregated structure |
| O=C(O)c1cccc(-c2ccc([N+](=O)[O-])c(NCc3ccccc3)c2)c1 [Example 54, 3′-(benzylamino)-4′-nitrophenyl-3-carboxylic acid] | – | – | – | circular dichroism: effect on amyloid structure (amyloid): keeps amyloid from entering an aggregated structure |
| CCCNc1cc(N2CCN(C(=O)c3ccccc3)CC2)ccc1[N+](=O)[O-] [Example 6, (4-(4-nitro-3-(propylamino)phenyl)piperazin-1-yl)(phenyl)methanone] | – | – | – | ability to inhibit the aggregation of tau protein (tau protein): inhibit the aggregation of tau protein |

More lines, main results first:

| IC50 (Aβ40) | Ratio (Aβ40) | IC50 (alpha-synuclein [1]) | SMILES | also measured |
| --- | --- | --- | --- | --- |
| 2.5 µM | 0.34 | 142 µM | CCCNc1cc(N2CCN(C(=O)c3ccccc3)CC2)ccc1[N+](=O)[O-] [drawing 105] | – |
| 25 µM | 0.88 | 4 µM | CN(C)c1cc(N2CCN(C(=O)c3ccccc3)CC2)ccc1[N+](=O)[O-] | – |
| 9.64 µM | 0.9 | 5 µM | CN(c1ccccc1)c1cc(N2CCN(C(=O)c3ccccc3)CC2)ccc1[N+](=O)[O-] | – |
| 3.5 µM | 11 | ~7 µM | CN(C)c1ccc(N2CCN(C(=O)c3ccccc3)CC2)cc1Nc1ccccc1 [drawing 157] | – |
| 0.85 µM | 1 | 6.34 µM | O=C(c1ccccc1)N1CCN(c2ccc([N+](=O)[O-])c(Nc3ccccc3)c2)CC1 [Example 7, (4-(4-nitro-3-(phenylamino)phenyl)piperazin-1-yl)(phenyl)methanone] | ability to inhibit the aggregation of tau protein (tau protein): inhibit the aggregation of tau protein |
| 10 to 20 µM | 0.09 | 51 µM | O=C(c1ccccc1)N1CCN(c2ccc([N+](=O)[O-])c(NCc3ccccc3)c2)CC1 | – |
